From publication PMC7136958, “Targeting the pregnane X receptor using microbial metabolite mimicry” (EMBO Molecular Medicine, 2020) come the findings set out here.

Each structure is given as a SMILES string. Several values for one entry are separate records, joined by “and”; a condition that tells them apart may be missing. Equal entries are not always repeated.

One test has as its system hPXR mice. Description: DSS-induced acute colitis in hPXR mice. Type of test: in vivo, mouse. The method, then: For these studies, 7‐ to 8‐week‐old female (DeVoss & Diehl, 2014) hPXR (mice expressing the human PXR gene) and pxr ^−/− mice (C57BL/6 background) were bred and each genotype was separated into two treatment groups using a random allocation method via coin toss—(i) n = 3 control (0.8% DMSO in 100 μl drinking water) and (ii) n = 3 FKK6 (200 μM (0.4 mg/kg/day) in 0.8% DMSO in 100 μl drinking water) administered once per day via oral gavage, and via intrarectal gavage for a total of 10 consecutive days The dose was chosen based on the extrapolation of the total dose delivered over 10 days to mice (~ 4 mg/kg), which is equivalent to that delivered to mice for determining target gene expression over 3–5 doses (3–5 mg/kg). […] Fecal pellets were collected prior to the initiation of the treatment protocol. All mice were starved overnight (12 h) to allow for smooth intrarectal delivery; however, the mice were allowed to feed ad libitum during the day. After 10 days, the mice were sacrificed and organs/tissues/feces harvested for further study. Prior to necropsy, mice were administered FITC‐dextran, and mouse serum was collected for the FITC‐dextran assay as previously described (Vetizou et al, 2015). The experimenter was not blinded to treatment allocation; however, the pathologist (KS) evaluating histologic scores was blinded to treatment allocation. All studies were approved by the Institute of Animal Studies at the Albert Einstein College of Medicine, INC (IACUC # 20160706 and preceding protocols). Colitis scoring was performed as previously published, and post‐examination masking was conducted (Kim et al, 2012; Meyerholz & Beck, 2018).
For RT–qPCR of colon tissue for cytokine expression data, new experiments were conducted with 3% DSS and the identical FKK6 dose (n = 3 mice/group) and scheduled as above. RT–qPCR was performed using PowerUp™ SYBR® Green Master Mix (A25741, Thermo Fisher Scientific) and primers specific for IL‐10, TNF‐α, TNFR2, and […]. Each target gene was analyzed in quadruplicate. Normalizing controls included GAPDH (used to illustrate data) and TBP.

A further test addresses JNK1 (Homo sapiens, UniProt P45983). Description: KINOMEscan select kinase screen. The class given is binding. Conditions: two experiments. The method, then:
(§1) Kinase Assays. The kinase inhibition assays were conducted by DiscoverX on a platform assay by Ambit BioSciences as described previously 16,17. FKK6 was screened at a single concentration of 10 μM in duplicate. The scanMAXSM assay panel measures 468 kinases
(§2) (https://www.discoverx.com/services/drug-discovery-development-services/kinase-profiling/kinomescan/scanmax). The assays measure a compound’s ability to inhibit binding of a canonical ligand substrate, with 0% activity of control corresponding to full inhibition and 100% activity of control to no inhibition. […]

Another test addresses JNK2 (Homo sapiens, UniProt P45984). Description: KINOMEscan select kinase screen. Conditions: two experiments. Type of test: binding. The method, then: as §1, §2
The target of the next test is S6K1 (Homo sapiens, UniProt P23443). Description: KINOMEscan select kinase screen. The note with it: two experiments. The class given is binding. As to the method: as §1, §2
Chain of S6K1 (P23443 whole entry): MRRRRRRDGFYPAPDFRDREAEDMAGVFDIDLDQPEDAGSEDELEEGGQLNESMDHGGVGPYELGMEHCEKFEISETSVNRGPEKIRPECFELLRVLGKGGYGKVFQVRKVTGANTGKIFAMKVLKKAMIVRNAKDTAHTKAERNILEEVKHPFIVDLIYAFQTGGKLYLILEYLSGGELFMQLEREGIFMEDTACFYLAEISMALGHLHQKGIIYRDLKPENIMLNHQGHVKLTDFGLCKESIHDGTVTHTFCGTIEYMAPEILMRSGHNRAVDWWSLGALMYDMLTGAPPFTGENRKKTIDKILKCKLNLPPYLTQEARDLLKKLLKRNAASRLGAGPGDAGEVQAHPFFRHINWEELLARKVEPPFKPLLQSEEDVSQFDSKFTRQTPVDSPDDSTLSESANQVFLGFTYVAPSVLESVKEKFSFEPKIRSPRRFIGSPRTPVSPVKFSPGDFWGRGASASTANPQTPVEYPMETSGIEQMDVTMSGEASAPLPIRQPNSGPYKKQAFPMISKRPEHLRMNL
Setting [1] is: FKK6 200 μM, day 10, individual mice.

Chain of JNK1 (P45983 whole entry): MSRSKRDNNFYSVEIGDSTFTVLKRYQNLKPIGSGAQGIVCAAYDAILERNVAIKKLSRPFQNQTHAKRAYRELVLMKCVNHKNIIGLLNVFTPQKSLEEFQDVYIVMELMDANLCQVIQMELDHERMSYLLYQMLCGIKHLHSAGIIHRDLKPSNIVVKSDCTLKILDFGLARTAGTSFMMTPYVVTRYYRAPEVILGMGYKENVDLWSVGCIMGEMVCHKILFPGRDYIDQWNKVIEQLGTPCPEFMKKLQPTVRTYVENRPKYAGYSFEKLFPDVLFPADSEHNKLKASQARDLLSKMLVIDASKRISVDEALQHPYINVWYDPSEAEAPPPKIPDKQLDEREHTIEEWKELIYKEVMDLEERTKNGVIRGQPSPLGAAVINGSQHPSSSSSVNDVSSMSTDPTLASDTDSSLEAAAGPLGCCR
Chain of JNK2 (P45984 whole entry): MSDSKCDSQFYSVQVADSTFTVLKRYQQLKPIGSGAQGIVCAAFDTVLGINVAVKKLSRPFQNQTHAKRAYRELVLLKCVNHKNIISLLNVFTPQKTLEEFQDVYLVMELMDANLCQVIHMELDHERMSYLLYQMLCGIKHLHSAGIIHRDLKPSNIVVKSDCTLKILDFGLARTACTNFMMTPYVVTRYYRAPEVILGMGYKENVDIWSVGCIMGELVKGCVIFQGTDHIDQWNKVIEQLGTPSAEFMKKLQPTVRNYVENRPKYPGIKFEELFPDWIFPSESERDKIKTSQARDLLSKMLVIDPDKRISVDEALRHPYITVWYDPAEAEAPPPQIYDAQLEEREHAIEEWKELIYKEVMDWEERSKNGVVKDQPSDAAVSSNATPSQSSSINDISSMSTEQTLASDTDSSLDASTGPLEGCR

Regarding `C#CCC(O)(c1ccncc1)c1cc2ccccc2n1S(=O)(=O)c1ccccc1` (centres unmarked) [FKK6], in the test with hPXR mice (3% DSS, FKK6 vs controls), the “colon tissue IL-10 mRNA” value is listed as “significant increase”, the “colon tissue TNF-α mRNA” value was “decrease” and the “colon tissue TNFR2 mRNA” value is on record as “decrease”. Also, in the test with hPXR mice (3% DSS, FKK6 vs vehicle), the “colon tissue IL-17f mRNA” value is “significant reduction”. In the test on hPXR mice (FKK6 200 μM), the “fecal lipocalin 2” value is “only a trend in the reduction” and the “serum FITC-dextran” value is listed as “only a trend in the reduction”. Besides, the “% weight loss from baseline (day 1 vs. day 10)” value with hPXR mice (FKK6 200 μM oral gavage plus intrarectal, once daily 10 days, individual mice) was “significantly reduced weight loss and 20% and 16%”. Besides, in the test on hPXR mice (setting [1]), the colon length entry is “increased colon length and 5.2 cm and 5.6 cm and 5.1 cm”; the inflammation score entry is “substantially decreased and 3 and 5”.

For the compound `O=C(c1ccncc1)c1cc2ccccc2n1S(=O)(=O)c1ccccc1` [FKK5, (1-(phenylsulfonyl)-1H-indol-2-yl)(pyridin-4-yl)methanone], the “%Ctrl” value on JNK1 (10000 nM, 10 µM) was 95 %Ctrl; at JNK1 (25000 nM, 25 µM) it was 85 %Ctrl; at JNK2 (10000 nM, 10 µM) it was 88 %Ctrl; at JNK2 (25000 nM, 25 µM), 80 %Ctrl; at S6K1 (10000 nM, 10 µM), 79 %Ctrl and 100 %Ctrl; at S6K1 (25000 nM, 25 µM) it was 89 %Ctrl. Also, the remaining binding at 10 µM came out at 91% on JNK1 (10000 nM, read-out: %Ctrl) and 95% at JNK2 (10000 nM, read-out: %Ctrl). The remaining binding at 25 µM at JNK1 (25000 nM, read-out: %Ctrl) came out at 66%; on JNK2 (25000 nM, read-out: %Ctrl), 74%; at S6K1 (25000 nM, read-out: %Ctrl), 71%.
